# Reference: patent publication US20080199606A1, “Composition for the Impregnation of Fibers, Fabrics and Nettings Imparting a Protective Activity Against Pests” (BASF Aktiengesellschaft, priority 2005, published 2008)
# Tested on: mosquitoes
# Test: WHO cone test of treated, washed polyester nettings (knockdown, 24-hour mortality)
# Assay type: in vivo
# Conditions: polyester nettings treated with insecticide composition comprising a binder of example A and the N-arylhydrazine derivative; after Montpellier washing; 3 min cone exposure
# Method: The long-lasting insecticidal treatment was performed with aqueous dispersions according to examples A1-A17 on commercially available white polyester netting material (fiber titer 75 denier, 156 mesh, weight 28-32 g/m^2) without prior washing. The aqueous treatment baths were prepared by mixing the aqueous dispersions with emulsions of N-ethyl-2,2-dimethylpropionamide-2-(2,6-dichloro-α,α,α-trifluoro-p-tolyl)-hydrazone and N-ethyl-2,2-dichloro-1-methylcyclo-propanecarboxamide-2-(2,6-dichloro-α,α,α-tri-fluoro-p-tolyl)hydrazone, respectively, setting pH with buffer solutions and adding a fixative (if needed). The concentrations of the treatment baths were adjusted according to the liquor uptake possible (LU between 60 and 100%). The treatment baths were applied by using a padder-stenter equipment on a laboratory scale (Mathis AG, Switzerland). The netting material is fully immersed into the treatment bath and excess liquor is removed by passing it through cylinders which move in counter-direction. By choosing a defined distance between these cylinders (and thus a defined pressure) the liquor uptake can be controlled. The liquor uptake is measured by weighing an impregnated piece of netting and subtracting the weight of the dry, untreated netting and is given as % weight of liquor on weight of netting. […]
row,SMILES,"activity (knockdown, mortality) after washing of the nettings"
1,"CCN/C(=N\Nc1c(Cl)cc(C(F)(F)F)cc1Cl)C(C)(C)C [Ia-I, N-ethyl-2,2-dimethylpropionamide-2-(2,6-dichloro-α,α,α-trifluoro-p-tolyl)-hydrazone]",show an activity
2,"CCN/C(=N\Nc1c(Cl)cc(C(F)(F)F)cc1Cl)C1(C)CC1(Cl)Cl (stereo not drawn) [Ia-II, N-Ethyl-2,2-dichloro-1-methylcyclo-propanecarboxamide-2-(2,6-dichloro-α,α,α-tri-fluoro-p-tolyl)hydrazone]",show an activity
